Test [1] addresses T1, RXRα (Homo sapiens, UniProt P19793).
T1 construct: expressed in transfected cells
T1 sequence (P19793 1-462): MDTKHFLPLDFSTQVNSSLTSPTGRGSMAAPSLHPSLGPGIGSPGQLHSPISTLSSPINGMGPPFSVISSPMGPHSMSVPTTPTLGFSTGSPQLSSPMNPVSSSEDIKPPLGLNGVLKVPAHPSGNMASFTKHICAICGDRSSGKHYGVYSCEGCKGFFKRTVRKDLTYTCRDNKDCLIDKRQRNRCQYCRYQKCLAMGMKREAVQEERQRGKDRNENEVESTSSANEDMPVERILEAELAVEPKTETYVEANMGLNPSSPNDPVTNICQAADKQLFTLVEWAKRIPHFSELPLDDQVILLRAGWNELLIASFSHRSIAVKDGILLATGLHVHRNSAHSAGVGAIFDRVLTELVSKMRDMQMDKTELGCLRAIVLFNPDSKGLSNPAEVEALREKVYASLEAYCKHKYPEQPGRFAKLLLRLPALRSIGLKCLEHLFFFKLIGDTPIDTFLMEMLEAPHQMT
Put plainly: ligand binding assay, RXRα. To be noted: for Ki: read-out: RXR Bind Ki α. A digest of the protocol: (§1)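 Binding of compounds to several retinoid receptor subtypes was measured. Results are given as Ki values in nanomolar concentration, derived per Cheng et al.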

Test [2] addresses T1, RXRα. In words: holoreceptor transactivation assay, RXRα. The class given is cell-based. To be noted: for EC50: holoreceptor transactivation, read-out: RXR Trans. EC50 α; for Emax: percentage compared to the standard compound, read-out: RXR Trans. efficacy (number in parentheses) α. The essentials: (§2)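 RXR activation measured in holoreceptor transactivation assays; RAR subtypes in chimeric receptor transactivation assays. Values are EC50 in nM, with efficacy as percentage of maximal activity of a reference cyclopropyl-pentadienoic acid RXR agonist.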

Test [3] addresses T2, RARα (Homo sapiens, UniProt P10276).
T2 sequence (P10276 1-462): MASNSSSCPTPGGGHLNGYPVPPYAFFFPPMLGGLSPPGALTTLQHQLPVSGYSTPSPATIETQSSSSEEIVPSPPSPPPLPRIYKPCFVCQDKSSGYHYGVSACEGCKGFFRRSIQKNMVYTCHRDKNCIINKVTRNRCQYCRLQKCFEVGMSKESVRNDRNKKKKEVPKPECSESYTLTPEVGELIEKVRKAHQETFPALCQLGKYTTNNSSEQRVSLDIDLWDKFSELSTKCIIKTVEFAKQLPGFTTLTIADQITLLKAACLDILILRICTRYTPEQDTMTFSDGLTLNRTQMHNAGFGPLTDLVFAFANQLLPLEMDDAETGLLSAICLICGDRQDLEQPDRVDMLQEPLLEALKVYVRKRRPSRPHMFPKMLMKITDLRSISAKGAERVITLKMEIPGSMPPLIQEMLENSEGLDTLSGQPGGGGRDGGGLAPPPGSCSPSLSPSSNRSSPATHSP
In words: ligand binding assay, RARα. To be noted: for Ki: read-out: RAR Bind. Ki α. A digest of the protocol: as §1

Test [4] addresses T3, RARα (Homo sapiens, UniProt P10276).
T3 sequence (P10276 183-417 limits assumed): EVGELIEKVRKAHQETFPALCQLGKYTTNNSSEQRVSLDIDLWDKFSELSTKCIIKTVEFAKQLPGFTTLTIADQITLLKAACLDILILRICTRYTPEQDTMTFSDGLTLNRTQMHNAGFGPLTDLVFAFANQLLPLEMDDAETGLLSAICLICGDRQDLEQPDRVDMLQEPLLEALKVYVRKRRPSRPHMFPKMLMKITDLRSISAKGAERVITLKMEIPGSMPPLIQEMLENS
In words: chimeric receptor transactivation assay, RARα. The class given is cell-based. The following applies: for EC50: chimeric receptor transactivation, read-out: RAR Trans. EC50 α; for Emax: percentage compared to the standard compound, read-out: RAR Trans. efficacy (number in parentheses) α. The source says: Specifically, one such assay is a chimeric receptor transactivation assay which tests for agonist-like activity in the R RAPE and RAR7 receptor subtypes, and which is based on work published by Feigner, P. L. and Holm, M (1989) Focus, 112 is described in detail in U.S. Pat. No. 5,455,265. The specification of U.S. Pat. No. 5,455,265 is hereby expressly incorporated by reference. A holoreceptor transactivation assay and a ligand binding assay which measure the antagonist/agonist like activity of the compounds of the invention, or their ability to bind to the several retinoid receptor subtypes, respectively, are described in published PCT Application No. WO WO93/11755 (particularly on pages 30-33 and 37-41) published on Jun. 24, 1993, the specification of which is also incorporated herein by reference. A detailed experimental procedure for holoreceptor transactivations has been described by Heyman et al. Cell 68, 397-406, (1992); Allegretto et al. J. Biol. Chem. 268, 26625-26633, and Mangelsdorf et al. The Retinoids: Biology, Chemistry and Medicine, pp 319-349, Raven Press Ltd., New York, which are expressly incorporated herein by reference. The results obtained in this assay are expressed in EC50 numbers, as they are also in the chimeric receptor transactivation assay. The results of the ligand binding assay are expressed in Ki numbers. (See Cheng et al. Biochemical Pharmacology Vol. 22 pp 3099-3108, expressly incorporated herein by reference.)
Efficacy in a transactivation assay is expressed as a percentage of the maximum potency attained by the compound compared to a standard which, in this case, is the compound named (2E,4E,1′S,2′S)-3-methyl-5-[2′-methyl-2′-(5,5,8,8-tetramethyl-5,6,7,8-tetrahydro-naphthalen-2-yl)-cyclopropyl]-penta-2,4-dienoic acid. This standard compound is described in U.S. Pat. No. 6,114,533.
The specification of this application for patent is organized in several sections in accordance with structural Formulas A through F each of which discloses a group of preferred compounds within the scope of the invention. Tables that disclose the activity of certain exemplary compounds of the invention in the above-described RXR receptor transactivation and binding assays are found in the corresponding sections. […] The transactivation data pertaining to the activation of RXR receptors were obtained in the holoreceptor assay.
Generally speaking, in the tables disclosing the results of transactivation and binding assays the numbers in parentheses indicate efficacy as a percentage compared to the standard compound, (2E,4E,1′S,2′S)-3-methyl-5-[2′-methyl-2′-(5,5,8,8-tetramethyl-5,6,7,8-tetrahydro-naphthalen-2-yl)cyclopropyl]-penta-2,4-dienoic acid and the other numbers indicate the measured EC50 and K; in nanomolar concentration.

Test [5] concerns the target T4, RXRγ (UniProt P28705).
T4 sequence (P28705 1-463): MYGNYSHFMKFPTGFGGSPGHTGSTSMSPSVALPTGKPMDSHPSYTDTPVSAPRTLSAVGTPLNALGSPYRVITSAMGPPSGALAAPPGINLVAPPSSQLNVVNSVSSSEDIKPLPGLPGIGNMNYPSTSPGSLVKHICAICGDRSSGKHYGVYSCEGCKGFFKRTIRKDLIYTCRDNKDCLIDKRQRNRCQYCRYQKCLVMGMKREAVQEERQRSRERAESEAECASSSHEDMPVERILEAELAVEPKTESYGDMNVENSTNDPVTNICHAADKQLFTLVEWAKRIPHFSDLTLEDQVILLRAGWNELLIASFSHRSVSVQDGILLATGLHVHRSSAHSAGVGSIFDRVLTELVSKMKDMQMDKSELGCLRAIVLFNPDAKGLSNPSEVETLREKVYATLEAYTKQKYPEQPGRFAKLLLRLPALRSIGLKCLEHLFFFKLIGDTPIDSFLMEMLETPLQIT
In words: holoreceptor transactivation assay, RXRγ. The class given is cell-based. To be noted: for EC50: holoreceptor transactivation, read-out: RXR Trans. EC50 γ; for RXR Trans. efficacy (number in parentheses) γ: percentage compared to the standard compound. A digest of the protocol: as §2

In the case of `CCOc1cc2c(cc1\C(CC)=C(F)/C=C/C(C)=C/C(=O)O)C(CC)=CCC2(C)C` [Compound A-78, (2E,4E,6E)-7-(3-Ethoxy-8-ethyl-5,5-dimethyl-5,6-dihydro-naphthalen-2-yl)-6-fluoro-3-methyl-nona-2,4,6-trienoic acid], the inhibition constant Ki (usually a dissociation constant, usually derived from enzyme kinetics or from competition with a known ligand) in test [1] is 3 nM; in test [3], 180 nM. The EC50 (in general, the concentration needed to bring the measured effect to its halfway point) in test [2] worked out at 3 nM; in test [4], 29 nM; in test [5] it was 4 nM. For the same compound, the results for the Emax in test [2] and in test [4] were 23% and 10%, respectively. In addition, the “RXR Trans. efficacy (number in parentheses) γ” value (“RXR Trans. efficacy” for short) in test [5] worked out at 11%.
Regarding `CC/C(=C(F)/C=C/C(C)=C/C(=O)O)c1cc2c(c(Cl)c1OC)OC(C)(C)C=C2C(C)C` [Compound 171, 7-(8-Chloro-4-isopropyl-7-methoxy-2,2-dimethyl-2H-chromen-6-yl)-6-fluoro-3-methyl-nona-2E,4E,6E-trienoic acid], the results for the inhibition constant (Ki) in test [1] and in test [3] were 1.3 nM and 47 nM, respectively. In addition, the concentration giving a half-maximal response (EC50) is 0.02 nM in test [2], more than 1000 nM in test [4] and 0.04 nM in test [5]. The Emax in test [2] is 87%. In addition, the “RXR Trans. efficacy” value in test [5] is 95%.
For `CCOc1c(\C(=C(F)/C=C/C(C)=C/C(=O)O)C(C)C)cc2c(c1Br)C(C)(C)CC=C2C(C)C` [Compound A-171, (2E,4E,6E)-7-(4-Bromo-3-ethoxy-8-isopropyl-5,5-dimethyl-5,6-dihydro-naphthalen-2-yl)-6-fluoro-3.8-dimethyl-nona-2.4,6-trienoic acid], the Kd (usually the equilibrium constant for the complex coming apart) was found to be 2 nM in test [1] (Table 9 (Formula F), read-out: RXR α Kd) and 29 nM in test [3] (Table 9 (Formula F), read-out: RAR α Kd). For the same compound, the figures for the half-maximal effective concentration (EC50) in test [2], in test [4] and in test [5] were 0.9 nM, 3 nM and 2 nM, respectively. Further, the Emax in test [2] was found to be 24%; in test [4] it was 13%. Further, the “RXR Trans. efficacy” value in test [5] is 16%.

Values taken from patent publication US6887896B1, “7-[(7-Alkoxy)-chrom-3-en-6-yl]-heptatrienoic acid and 7-[(3-alkoxy)-5,6-dihydronaphthalen-2-yl]-heptatrienoic acid derivatives having serum glucose reducing activity” (Allergan, Inc., priority 2003, dated 2005).
